ChEMBL document CHEMBL1147852, “Synthesis and biology of bis-xylosylated dihydroxynaphthalenes” (2007)

System: T-24
Test: Antiproliferative activity against human T24 cells
Format: functional
Details: read-out: ED50 (the source's name)

SMILES	EC50
O[C@@H]1[C@@H](O)[C@H](Oc2ccc3cc(O[C@@H]4OC[C@@H](O)[C@H](O)[C@H]4O)ccc3c2)OC[C@H]1O	> 400 µM
O[C@@H]1[C@@H](O)[C@H](Oc2cc(O[C@@H]3OC[C@@H](O)[C@H](O)[C@H]3O)c3ccccc3c2)OC[C@H]1O	> 400 µM
O[C@@H]1[C@@H](O)[C@H](Oc2ccc(O[C@@H]3OC[C@@H](O)[C@H](O)[C@H]3O)c3ccccc23)OC[C@H]1O	400 µM
O[C@@H]1[C@@H](Oc2ccc3ccc(O[C@@H]4OC[C@@H](O)[C@H](O)[C@H]4O)cc3c2)OC[C@H](O)[C@H]1O	450 µM
O[C@@H]1[C@@H](O)[C@H](Oc2cccc3c(O[C@@H]4OC[C@@H](O)[C@H](O)[C@H]4O)cccc23)OC[C@H]1O	400 µM
